Results as given in patent publication US20260206761A1, “HETEROARYL-TRIAZOLE COMPOUNDS AS PESTICIDES” (Bayer Aktiengesellschaft, priority 2019, published 2026).

Columns and labels:
Assay type in all cases: in vivo
[1] = test system: Rhipicephalus microplus larvae (strain Parkhurst, resistant against synthetic pyrethroids); test: Rhipicephalus (Boophilus) microplus in-vitro contact test, larval cattle tick; details: after 48 hours, read-out: activity (efficacy: larvae dead or moribund); for pest or weed control at 100 g/ha: application rate 1 pg/cm^2 (=100 g/ha); for pest or weed control at 500 g/ha: application rate 5 pg/cm^2 (=500 g/ha)
How it was run: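 Larvae (20-50 per tube) exposed to dry compound film on glass tube walls, 5 μg/cm^2 at 900 ppm, applied from acetone. After 48 h at 27° C./85% RH, tubes tapped and negative geotaxis scored; efficacy as percent dead or moribund larvae.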

[2] = test system: adult engorged female ticks (Rhipicephalus microplus); test: Rhipicephalus (Boophilus) microplus injection test; details: 168 h, egg deposition after 7 days, read-out: activity (efficacy: infertile eggs); for pest or weed control at 4 pg: application rate 4 pg/animal; for pest or weed control at 0.02 mg: application rate 20 μg/animal
How it was run: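 Abdominal injection, 1 μL compound/DMSO, n=5 engorged adult females; climate-chamber incubation. Readout d7: fertile egg laying; doubtful eggs held to hatch (~42 d). % efficacy = infertile eggs (100% all infertile).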

[3] = test system: adult cat fleas (Ctenocephalides felis); test: Ctenocephalides felis in-vitro contact test, adult cat flea; details: application rate 5 μg/cm^2 (=500 g/ha), after 48 hours, read-out: activity (efficacy: fleas dead or moribund)
Description: Ctenocephalides felis—In-Vitro Contact Tests Adult Cat Flea
9 mg compound is solved in 1 mL acetone and diluted with acetone to the desired concentration. 250 μL of the test solution is filled in 25 mL glass test tubes and homogeneously distributed on the inner walls by rotation and tilting on a shaking device (2 h at 30 rpm). With a compound concentration of 900 ppm, an inner surface of 44.7 cm^2 and a homogeneous distribution, a dose of […] is achieved.
After the solvent has evaporated, each test tube is filled with 5-10 adult cat fleas (Ctenocephalides felis), closed with a perforated lid and incubated in a lying position at room temperature and relative humidity. After 48 hours efficacy is determined. The fleas are patted on the ground of the tubes and are incubated on a heating plate at 45-50° C. for at most 5 minutes. Immotile or uncoordinated moving fleas, which are not able to escape the heat by climbing upwards, are marked as dead or moribund.
An efficacy of 100% means all fleas are dead or moribund; 0% means no fleas are dead or moribund.

[4] = test system: adult unfed cat fleas (Ctenocephalides felis); test: Ctenocephalides felis oral test; details: 48 h, read-out: activity (mortality)
Description: Ctenocephalides felis—Oral Test
Solvent: dimethyl sulfoxide
To produce a suitable preparation of active compound, 10 mg of active compound are dissolved in 0.5 mL solvent, and the concentrate is diluted with cattle blood to the desired concentration.
Approximately 20 adult unfed cat fleas (Ctenocephalides felis) are placed in flea chambers. The blood chamber, sealed with parafilm on the bottom, are filled with cattle blood supplied with compound solution and placed on the gauze covered top of the flea chamber, so that the fleas are able to suck the blood. The blood chamber is heated to 37° C. whereas the flea chamber is kept at room temperature.
After 2 days mortality in % is determined. 100% means all the fleas have been killed; 0% means none of the fleas have been killed.

[5] = test system: fall armyworm larvae (Spodoptera frugiperda); test: Spodoptera frugiperda spray test; details: 168 h, read-out: activity (mortality)
How it was run: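 Larvae of fall armyworm placed on dried maize leaf sections previously sprayed with emulsified compound (acetone/DMF solvent, water with 1000 ppm emulsifier). Percent of caterpillars killed recorded on day 7, 0–100% scale.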

[6] = test system: adult brown dog ticks (Rhipicephalus sanguineus); test: Rhipicephalus sanguineus in-vitro contact test, adult brown dog ticks; details: after 48 hours, read-out: activity (efficacy: ticks dead or moribund); for pest or weed control at 100 g/ha: application rate 1 pg/cm^2 (=100 g/ha); for pest or weed control at 5 µg/cm2, 500 g/ha: application rate 5 μg/cm^2 (=500 g/ha)
How it was run: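 Contact exposure: dried compound film inside glass tubes, dose 5 μg/cm^2 at 900 ppm, 5-10 adults per tube at room temperature. Scored at 48 h via a heat-escape test on a 45-50° C plate for up to 5 min.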

[7] = test system: larvae of the banded cucumber beetle (Diabrotica balteata); test: Diabrotica balteata spray test; details: 168 h, application rate 100 g/ha (=32 pg/well), after 7 days, read-out: activity (efficacy: seedlings grown)
How it was run: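 Read-out is % efficacy at day 7, 0% meaning no seedling growth and 100% growth equal to uninfested untreated controls. Test solutions (acetone/DMF concentrate diluted with water carrying 1000 ppm emulsifier) were sprayed onto 1-day-germinated wheat seeds, 5 per well, before infestation with 10-20 larvae.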

[8] = test system: green peach aphid (Myzus persicae); test: Myzus persicae oral test; details: 120 h, application rate 4 ppm, after 5 days
How it was run: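 Five-day oral feeding assay measuring percent mortality of a mixed aphid population that draws compound-containing sugared IPL41 medium through sealing parafilm; the test preparation derives from 1 part compound per 100 parts acetone, diluted with water.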

[9] = test system: green peach aphid (Myzus persicae); test: Myzus persicae spray test; details: 120 h, after 5 days; for mortality at 100 g/ha: application rate 100 g/ha
Description: Myzus persicae—Spray Test
Solvent: 78.0 parts by weight acetone • 1.5 parts by weight dimethylformamide
Emulsifier: alkylarylpolyglycol ether
To produce a suitable preparation of active compound, 1 part by weight of active compound is mixed with the stated amount of solvents and is diluted with water, containing an emulsifier concentration of 1000 ppm, to the desired concentration. Further test concentrations are prepared by dilution with emulsifier containing water.
Chinese cabbage (Brassica pekinensis) leaf disks infected with all instars of the green peach aphid (Myzus persicae), are sprayed with a preparation of the active ingredient of the desired concentration.
After 5 days mortality in % is determined. 100% means all aphids have been killed and 0% means none of the aphids have been killed.

[10] = test system: larvae of the southern green stink bug (Nezara viridula); test: Nezara viridula spray test; details: 96 h, after 4 days; for mortality at 100 g/ha: application rate 100 g/ha
How it was run: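 Larva-infested barley (Hordeum vulgare) plants received a spray of test solution prepared from an acetone/DMF concentrate diluted in emulsifier-containing water (1000 ppm). Percent kill read 4 days later; 0% means no stink bugs dead.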

[11] = test system: Aedes aegypti strain MONHEIM; test: Aedes aegypti test (AEDSAE surface treatment & contact assay); details: 24 hours after contact, read-out: efficacy (mortality); for mortality at 4 mg/m2: surface concentration 4 mg/m^2, exposure 30 minutes
Description: Aedes aegypti Test (AEDSAE Surface Treatment & Contact Assay)
Solvent: Aceton+2000 ppm rapeseed oil methyl ester (RME)
In order to produce a sufficient, active ingredient containing solution it is necessary to solve the test compound in the solvent-mix (acetone at 2 mg/ml/RME 2000 ppm). This solution is pipetted onto a glazed tile and after evaporation of the acetone, adult mosquitoes of the species Aedes aegypti strain MONHEIM are placed onto the dried surface. The exposure time is 30 minutes. Mortality in percent (%) is determined 24 hours after contact of the insects to the treated surface. 100% mortality means that all tested insects are dead, whereas 0% means that no insect died.

Row | SMILES | pest or weed control at 100 g/ha [1] [%] | pest or weed control at 500 g/ha [1] [%] | pest or weed control at 4 pg [2] [%] | pest or weed control at 0.02 mg [2] [%] | pest or weed control at 5 µg/cm2 [3] [%] | mortality at 100 ppm [4] [%] | mortality at 100 g/ha [5] [%] | pest or weed control at 100 g/ha [6] [%] | pest or weed control at 5 µg/cm2, 500 g/ha [6] [%] | pest or weed control at 100 g/ha [7] [%] | mortality at 4 ppm [8] [%] | mortality at 100 g/ha [9] [%] | mortality at 100 g/ha [10] [%] | mortality at 4 mg/m2 [11] [%] | mortality at 20 mg/m2 ([11]; surface concentration 20 mg/m^2, exposure 30 minutes) [%] | mortality at 500 g/ha ([9]; application rate 500 g/ha) [%] | mortality at 500 g/ha ([10]; application rate 500 g/ha) [%]
1 | CC(NC(=O)c1cc(Cl)cc(S(C)(=O)=O)c1)c1nc(Cl)nn1-c1ccc(C#N)cn1 (stereo not shown) [I-32] | 100 | 100 | 100 | 100 | 100 | 100 | 100 | – | – | – | – | – | – | – | – | – | –
2 | C[C@H](NC(=O)c1cc(I)cc(C2CC2)c1)c1ncnn1-c1ccc(C#N)cn1 [II-58] | 100 | 100 | 100 | – | 80 | 100 | 100 | 100 | 100 | 100 | – | – | – | – | – | – | –
3 | COc1nc([C@H](C)NC(=O)c2cc(Cl)cc(S(=O)(=O)C(F)(F)F)c2)n(-c2ccc(Cl)cn2)n1 [I-52] | – | – | – | – | 90 | – | 83 | – | – | – | – | – | – | – | – | – | –
4 | CC(NC(=O)c1cc(OC(F)(F)F)cc(C2CC2)c1)c1nc(I)nn1-c1ncccn1 (stereo not shown) [I-43] | 100 | 100 | – | – | – | – | 100 | 100 | 100 | 100 | 100 | 100 | 100 | – | – | – | –
5 | C[C@H](NC(=O)c1cc(Br)cc(S(C)(=O)=O)c1)c1ncnn1-c1ccc(Cl)cn1 [II-40] | 100 | 100 | 100 | 100 | 100 | 100 | 100 | 100 | 100 | – | – | – | 100 | 80 to 100 | – | – | –
6 | COc1nc([C@H](C)NC(=O)c2cc(C(F)F)cc(C3CC3)c2)n(-c2ccc(C#N)cn2)n1 [I-70] | 100 | 100 | – | – | 80 | – | – | – | 80 | – | – | – | – | – | – | – | –
7 | CCS(=O)(=O)c1cc(C(=O)N[C@@H](C)c2ncnn2-c2ccc(Cl)cn2)cc(C(F)(F)F)c1 [II-45] | 100 | 100 | 100 | 100 | 80 | 100 | – | – | – | 100 | – | – | 100 | 80 to 100 | – | – | –
8 | C[C@H](NC(=O)c1cc(C#N)cc(C2CC2)c1)c1ncnn1-c1ccc(C#N)cn1 [II-53] | 80 | 80 | – | – | 100 | 100 | 83 | – | – | – | – | – | – | 80 to 100 | 80 to 100 | – | –
9 | C[C@H](NC(=O)c1cc(C(F)F)cc(S(C)(=O)=O)c1)c1nc(C2CC2)nn1-c1ccc(C#N)cn1 [I-51] | 100 | 100 | 100 | – | 90 | 100 | 100 | – | – | 100 | 100 | – | – | – | – | – | –
10 | C[C@H](NC(=O)c1cc(F)cc(S(C)(=O)=O)c1)c1nc(C2CC2)nn1-c1ncc(Cl)cn1 [I-66] | – | – | – | – | – | – | 100 | – | – | 100 | 100 | 100 | 100 | – | – | 100 | 100
11 | C[C@H](NC(=O)c1cc(Br)cc(C2CC2)c1)c1ncnn1-c1ccc(C#N)cn1 [II-59] | 100 | 100 | 80 | – | 100 | – | 100 | 100 | 100 | 100 | 100 | – | – | – | – | – | –
